Counter-ions that a name gives are not always drawn. Like-named read-outs stand apart in the source and are kept apart here.
Legend:
[1] = test system: Vampirovibrio chlorellavorus; settings: culture receiving the second pH treatment, 85% before treatment
Text: (§1) Some bacteria in the microalgae culture may attach to the cell wall of the microalgae, eventually lysing the cell wall of the microalgae and killing the microalgae. […] An example of bacteria known to attach to microalgae is Vampirovibrio chlorellavorus.
Samples were taken every two days to determine the cell dry weight (g/L) of the cultures.

[2] = test system: live bacteria in Chlorella culture; settings: for bacteria count: pH 3.5 with HCl (37%) for 15 minutes, open raceway pond
[3] = test system: Chlorella; settings: pH 3.5 with HCl (37%) for 15 minutes, open raceway pond
[4] = test system: Chlorella sp.; settings: for cell dry weight: second pH treatment 7.5 to 3.5 with HCl (18%) for 15 minutes, raised with 4 M NaOH
[5] = test system: Chlorella sp.; settings: culture at 1,029 mg/L acetate, pH 3.5 for 15 minutes, returned to 7.5 with 2 M NaOH
Method: The pH treated culture samples were maintained at the culture pH of 3.5 for 15 minutes before returning the culture pH to 7.5 by adding 2 M NaOH.
The pH treatment was applied directly into the culture, without previous concentration or subsequent dilution through inoculation into a fresh media. All cultures were incubated with shaking at 100 rpm in 5% carbon dioxide and 25° C. […] 100 μM photon/m^2 s of light was also provided to create mixotrophic growth conditions. The cultures were monitored for 4 days (96 hours with dry weight samples taken at 0, 48, and 96 hours). Residual acetate analyses were carried at the end of the experiment.

[6] = test system: bacteria attached to Chlorella
Text: as §1

[7] = test system: Cytophaga sp.; settings: pH treated versus untreated culture, over the life of the cultures
[8] = test system: Chlorella sp.; settings: pH lowered from about 7.5 to 3.5 for 15 minutes, raised back with 5M NaOH
Method: The first 400 ml culture was maintained as an untreated control at a pH of about 7.5. […] The pH treatments were applied directly to the cultures, without previous concentration of the microalgae or subsequent dilution through inoculation into fresh culture media. All cultures were incubated with shaking at 100 rpm in 5% carbon dioxide and 25° C. […] 100 μM photon/m^2 s of light was also provided to create mixotrophic growth conditions. The cultures were monitored for 4 days (96 hours with dry weight samples taken at 0, 48, and 96 hours). Live bacteria count samples were taken at 0 and 48 hours, and quantified using aerobic colony forming units (CFU) obtained from plate counts utilizing Petrifilm available from 3M (St. Paul, Minn.). A bacteria to microalgae ratio was also quantified using guava flow cytometry.

Structure (SMILES): Cl [HCl, hydrochloric acid]
- bacteria attachment level ([1]; day 4 (96 h)): about 4.5%
- bacteria attachment ([1]; within 48 hours): 0%
- total bacteria live count lower than the untreated culture ([2]; immediately following treatment): approximately 2 logs
- bacteria count ([2]; 0 h): 4.00E+04 CFU
- bacteria count ([2]; 24 h): 1.50E+07 CFU
- bacteria count ([2]; 48 h): 1.20E+08 CFU
- bacteria count ([2]; 72 h): 2.20E+08 CFU
- bacteria count ([2]; 96 h): 1.30E+08 CFU
- bacteria count ([2]; 120 h): 1.20E+08 CFU
- bacteria count ([2]; 144 h): 1.50E+08 CFU
- cell dry weight ([3]; raised to 8.5 with NaOH, 0 h): 1.2 g/L
- cell dry weight ([3]; 11 h): 1.4 g/L
- cell dry weight ([3]; 24 h): 1.6 g/L
- cell dry weight ([3]; 35 h): 2.2 g/L
- cell dry weight ([3]; 48 h): 2.5 g/L
- cell dry weight ([3]; 59 h): 3.5 g/L
- cell dry weight ([3]; 72 h): 4.0 g/L
- cell dry weight ([3]; 83 h): 4.8 g/L
- cell dry weight ([3]; 96 h): 5.1 g/L
- cell dry weight ([3]; 107 h): 5.4 g/L
- cell dry weight ([3]; 120 h): 5.7 g/L
- cell dry weight ([3]; 131 h): 6.1 g/L
- cell dry weight ([3]; 144 h): 6.1 g/L
- cell dry weight ([3]; 155 h (after partial harvest)): 1.9 g/L
- cell dry weight ([3]; 168 h): 1.8 g/L
- productive life of culture ([4]; culture that received one pH treatment): approximately 14 days
- productive life of culture (lasted until day, then discarded) ([4]; culture that received two pH treatments): ≥ 20 days
- cell dry weight ([4]; 0 h): 1.05 (g/L)
- cell dry weight ([4]; 48 h): 2.79 g/L
- cell dry weight ([4]; 96 h): 3.87 g/L
- cell dry weight ([4]; 144 h): 4.79 g/L
- Cell Dry Weight ([5]; 0 h): 0.89 ± 0.01 g/L
- Cell Dry Weight ([5]; 48 h): 1.88 ± 0.04 g/L
- Cell Dry Weight ([5]; 96 h): 2.58 ± 0.01 g/L
- time bacterial attachment remained below 10% ([6]; pH treated culture): over 100 hours
- bacterial attachment in the pH treated culture ([6]; within 12 hours, drop from about 50%): under 10%
- Cytophaga sp. detection by qPCR [7]: detected in the untreated culture only
- cell dry weight ([8]; 0 h): 0.80 ± 0.03 g/L
- cell dry weight ([8]; 48 h): 2.54 ± 0.00 g/L
- cell dry weight ([8]; 96 h): 3.78 ± 0.00 g/L

— patent publication US9416347B2, “Method of treating bacterial contamination in a microalgae culture with pH shock” (Heliae Development LLC, priority 2014, dated 2016)
